Source: ChEMBL document CHEMBL4028801, “A multifactorial approach to hepatobiliary transporter assessment enables improved therapeutic compound development” (Toxicol Sci, 2013)

Tests used:
[1] = target: ATP-binding cassette sub-family C member 3 (Homo sapiens, UniProt O15438); experiment: Inhibition of human MRP3 overexpressed in Sf9 insect cell membrane vesicles assessed as uptake of [3H]-estradiol-17beta-D-glucuronide in presence of ATP and GSH measured after 10 mins by membrane vesicle transport assay; format: ADME, cell-based
ATP-binding cassette sub-family C member 3, sequence (O15438 whole entry): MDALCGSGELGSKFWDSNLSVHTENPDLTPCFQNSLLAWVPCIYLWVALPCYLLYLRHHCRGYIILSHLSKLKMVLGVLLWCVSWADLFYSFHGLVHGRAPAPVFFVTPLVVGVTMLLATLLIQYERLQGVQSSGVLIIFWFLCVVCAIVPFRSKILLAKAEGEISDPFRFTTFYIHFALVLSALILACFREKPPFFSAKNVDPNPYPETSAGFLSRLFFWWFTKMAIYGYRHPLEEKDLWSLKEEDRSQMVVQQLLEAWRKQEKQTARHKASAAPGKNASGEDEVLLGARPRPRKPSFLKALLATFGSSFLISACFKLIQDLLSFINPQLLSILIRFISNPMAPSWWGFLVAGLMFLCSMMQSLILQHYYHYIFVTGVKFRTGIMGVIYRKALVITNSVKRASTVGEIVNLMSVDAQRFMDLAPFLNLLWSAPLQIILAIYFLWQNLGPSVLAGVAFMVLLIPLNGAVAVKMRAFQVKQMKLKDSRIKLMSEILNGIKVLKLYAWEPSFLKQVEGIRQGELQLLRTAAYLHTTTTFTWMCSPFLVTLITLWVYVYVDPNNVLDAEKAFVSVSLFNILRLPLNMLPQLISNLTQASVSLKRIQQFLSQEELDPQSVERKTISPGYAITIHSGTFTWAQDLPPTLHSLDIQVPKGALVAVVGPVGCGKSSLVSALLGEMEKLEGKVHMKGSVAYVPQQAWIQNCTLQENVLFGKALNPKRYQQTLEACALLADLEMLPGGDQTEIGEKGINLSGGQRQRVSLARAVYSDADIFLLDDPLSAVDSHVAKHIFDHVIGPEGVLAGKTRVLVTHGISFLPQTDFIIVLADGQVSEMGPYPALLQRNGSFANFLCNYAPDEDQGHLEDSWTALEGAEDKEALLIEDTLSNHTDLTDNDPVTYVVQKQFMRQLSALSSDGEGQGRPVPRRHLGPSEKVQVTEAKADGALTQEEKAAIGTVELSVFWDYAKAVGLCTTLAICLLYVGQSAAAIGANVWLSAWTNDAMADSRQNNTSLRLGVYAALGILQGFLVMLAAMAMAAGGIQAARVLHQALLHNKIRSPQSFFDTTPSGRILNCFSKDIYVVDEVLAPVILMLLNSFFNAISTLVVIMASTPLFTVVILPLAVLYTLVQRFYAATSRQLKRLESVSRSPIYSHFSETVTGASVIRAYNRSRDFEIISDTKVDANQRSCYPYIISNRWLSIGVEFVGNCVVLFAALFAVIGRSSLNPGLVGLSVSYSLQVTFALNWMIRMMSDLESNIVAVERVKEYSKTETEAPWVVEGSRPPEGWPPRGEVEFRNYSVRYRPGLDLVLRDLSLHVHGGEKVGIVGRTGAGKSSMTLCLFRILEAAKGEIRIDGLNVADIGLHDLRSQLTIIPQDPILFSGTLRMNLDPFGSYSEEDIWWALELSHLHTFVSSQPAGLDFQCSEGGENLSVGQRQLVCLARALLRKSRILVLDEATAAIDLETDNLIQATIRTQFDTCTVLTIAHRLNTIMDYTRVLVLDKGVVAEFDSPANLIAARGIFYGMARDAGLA

[2] = AUC in human at 0.35 mg, po QD after 24 hrs; format: ADME, organism-based; design: time < 24 hr, dose 0.35 mg, route oral; settings: in vivo
[3] = target: ATP-binding cassette sub-family C member 2 (Homo sapiens, UniProt Q92887); experiment: Inhibition of human MRP2 overexpressed in Sf9 cell membrane vesicles assessed as uptake of [3H]-estradiol-17beta-D-glucuronide in presence of ATP and GSH measured after 20 mins by membrane vesicle transport assay
ATP-binding cassette sub-family C member 2, sequence (Q92887 whole entry): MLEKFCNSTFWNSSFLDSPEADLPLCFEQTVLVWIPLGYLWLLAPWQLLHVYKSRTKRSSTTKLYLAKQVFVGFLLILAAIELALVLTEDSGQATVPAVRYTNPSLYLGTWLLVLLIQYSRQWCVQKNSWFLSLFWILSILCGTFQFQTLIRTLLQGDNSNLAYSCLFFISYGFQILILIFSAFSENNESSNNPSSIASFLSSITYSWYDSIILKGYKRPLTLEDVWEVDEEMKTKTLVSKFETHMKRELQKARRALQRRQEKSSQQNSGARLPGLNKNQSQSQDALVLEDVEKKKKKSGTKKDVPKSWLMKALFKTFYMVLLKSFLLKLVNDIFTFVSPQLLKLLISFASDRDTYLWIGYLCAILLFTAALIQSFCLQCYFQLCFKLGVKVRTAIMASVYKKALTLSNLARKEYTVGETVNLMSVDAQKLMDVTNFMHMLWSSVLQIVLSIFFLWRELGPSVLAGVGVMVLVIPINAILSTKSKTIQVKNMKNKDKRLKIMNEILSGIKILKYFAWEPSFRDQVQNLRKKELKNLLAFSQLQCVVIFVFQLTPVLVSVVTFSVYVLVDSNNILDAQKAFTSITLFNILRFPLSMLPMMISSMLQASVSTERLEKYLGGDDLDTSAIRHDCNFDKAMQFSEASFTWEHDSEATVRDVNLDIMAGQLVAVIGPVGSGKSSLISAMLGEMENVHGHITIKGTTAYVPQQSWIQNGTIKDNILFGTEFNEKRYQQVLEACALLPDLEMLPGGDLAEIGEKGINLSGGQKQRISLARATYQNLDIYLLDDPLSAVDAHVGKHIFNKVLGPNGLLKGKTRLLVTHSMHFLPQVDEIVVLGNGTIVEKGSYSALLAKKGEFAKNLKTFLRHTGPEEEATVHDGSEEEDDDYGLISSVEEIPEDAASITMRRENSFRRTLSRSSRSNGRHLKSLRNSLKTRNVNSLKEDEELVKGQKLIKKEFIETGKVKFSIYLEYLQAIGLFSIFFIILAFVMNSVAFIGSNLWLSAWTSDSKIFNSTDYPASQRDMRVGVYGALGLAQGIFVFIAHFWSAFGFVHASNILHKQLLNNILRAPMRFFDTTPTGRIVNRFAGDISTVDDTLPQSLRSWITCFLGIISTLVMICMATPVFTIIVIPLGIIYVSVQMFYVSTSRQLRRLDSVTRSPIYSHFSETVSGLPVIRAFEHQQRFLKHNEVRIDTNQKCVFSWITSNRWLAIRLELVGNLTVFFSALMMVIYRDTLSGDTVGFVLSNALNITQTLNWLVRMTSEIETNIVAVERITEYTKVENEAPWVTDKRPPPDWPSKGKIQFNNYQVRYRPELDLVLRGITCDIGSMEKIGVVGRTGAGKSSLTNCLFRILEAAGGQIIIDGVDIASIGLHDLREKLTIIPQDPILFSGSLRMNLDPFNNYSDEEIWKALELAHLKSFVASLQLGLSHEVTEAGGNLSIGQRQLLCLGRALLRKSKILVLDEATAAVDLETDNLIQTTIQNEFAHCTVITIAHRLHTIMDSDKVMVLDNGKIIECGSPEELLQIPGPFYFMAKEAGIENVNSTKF

[4] = Drug concentration at steady state in human at 0.35 mg, po QD after 24 hrs; format: ADME, organism-based; settings: in vivo, read-out: Css
Bile salt export pump = Bile salt export pump (Homo sapiens, UniProt O95342); experiment: Inhibition of human BSEP overexpressed in Sf9 cell membrane vesicles assessed as uptake of [3H]-taurocholate in presence of ATP measured after 15 to 20 mins by membrane vesicle transport assay; format: ADME, cell-based
Bile salt export pump, sequence (O95342 whole entry): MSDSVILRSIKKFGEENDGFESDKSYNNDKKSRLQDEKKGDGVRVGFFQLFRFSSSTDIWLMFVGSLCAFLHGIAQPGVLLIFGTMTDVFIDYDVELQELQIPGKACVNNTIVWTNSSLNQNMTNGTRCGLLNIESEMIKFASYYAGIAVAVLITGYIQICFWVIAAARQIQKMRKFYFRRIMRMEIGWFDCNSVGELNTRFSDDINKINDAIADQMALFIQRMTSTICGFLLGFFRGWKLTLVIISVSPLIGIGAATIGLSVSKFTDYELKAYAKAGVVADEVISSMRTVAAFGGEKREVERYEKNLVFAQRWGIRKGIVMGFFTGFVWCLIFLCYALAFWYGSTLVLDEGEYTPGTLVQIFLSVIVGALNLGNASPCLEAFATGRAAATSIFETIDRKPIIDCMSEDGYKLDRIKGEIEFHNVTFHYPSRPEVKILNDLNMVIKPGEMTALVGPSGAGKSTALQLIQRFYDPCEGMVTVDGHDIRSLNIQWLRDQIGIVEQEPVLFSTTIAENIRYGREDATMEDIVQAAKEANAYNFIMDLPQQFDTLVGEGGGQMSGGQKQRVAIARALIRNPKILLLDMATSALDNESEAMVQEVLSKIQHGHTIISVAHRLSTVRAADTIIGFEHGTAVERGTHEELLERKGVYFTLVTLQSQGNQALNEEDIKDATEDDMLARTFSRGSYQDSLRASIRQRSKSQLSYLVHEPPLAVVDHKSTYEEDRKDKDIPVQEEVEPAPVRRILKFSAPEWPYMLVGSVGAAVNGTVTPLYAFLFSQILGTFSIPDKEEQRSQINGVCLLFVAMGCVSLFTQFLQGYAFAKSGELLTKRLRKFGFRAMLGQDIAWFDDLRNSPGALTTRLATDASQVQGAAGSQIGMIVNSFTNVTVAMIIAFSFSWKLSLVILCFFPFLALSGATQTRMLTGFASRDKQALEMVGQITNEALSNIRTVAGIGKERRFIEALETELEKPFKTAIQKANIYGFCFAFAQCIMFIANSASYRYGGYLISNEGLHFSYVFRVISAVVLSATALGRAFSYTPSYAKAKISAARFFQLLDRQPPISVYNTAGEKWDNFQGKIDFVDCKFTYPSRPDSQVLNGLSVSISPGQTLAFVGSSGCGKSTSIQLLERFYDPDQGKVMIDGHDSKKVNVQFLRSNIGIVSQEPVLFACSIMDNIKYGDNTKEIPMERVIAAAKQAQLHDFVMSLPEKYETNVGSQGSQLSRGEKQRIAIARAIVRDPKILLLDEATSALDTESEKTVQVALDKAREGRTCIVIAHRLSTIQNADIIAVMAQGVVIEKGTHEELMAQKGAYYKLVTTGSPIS

[5] = Ratio of drug concentration at steady state in human at 0.35 mg, po QD after 24 hrs to IC50 for human BSEP overexpressed in Sf9 insect cells; format: ADME, organism-based; settings: in vivo
[6] = target: T1, ATP-binding cassette sub-family C member 4 (Homo sapiens, UniProt O15439); experiment: Inhibition of human MRP4 overexpressed in Sf9 cell membrane vesicles assessed as uptake of [3H]-estradiol-17beta-D-glucuronide in presence of ATP and GSH measured after 20 mins by membrane vesicle transport assay; format: ADME, cell-based
T1 sequence (O15439 whole entry): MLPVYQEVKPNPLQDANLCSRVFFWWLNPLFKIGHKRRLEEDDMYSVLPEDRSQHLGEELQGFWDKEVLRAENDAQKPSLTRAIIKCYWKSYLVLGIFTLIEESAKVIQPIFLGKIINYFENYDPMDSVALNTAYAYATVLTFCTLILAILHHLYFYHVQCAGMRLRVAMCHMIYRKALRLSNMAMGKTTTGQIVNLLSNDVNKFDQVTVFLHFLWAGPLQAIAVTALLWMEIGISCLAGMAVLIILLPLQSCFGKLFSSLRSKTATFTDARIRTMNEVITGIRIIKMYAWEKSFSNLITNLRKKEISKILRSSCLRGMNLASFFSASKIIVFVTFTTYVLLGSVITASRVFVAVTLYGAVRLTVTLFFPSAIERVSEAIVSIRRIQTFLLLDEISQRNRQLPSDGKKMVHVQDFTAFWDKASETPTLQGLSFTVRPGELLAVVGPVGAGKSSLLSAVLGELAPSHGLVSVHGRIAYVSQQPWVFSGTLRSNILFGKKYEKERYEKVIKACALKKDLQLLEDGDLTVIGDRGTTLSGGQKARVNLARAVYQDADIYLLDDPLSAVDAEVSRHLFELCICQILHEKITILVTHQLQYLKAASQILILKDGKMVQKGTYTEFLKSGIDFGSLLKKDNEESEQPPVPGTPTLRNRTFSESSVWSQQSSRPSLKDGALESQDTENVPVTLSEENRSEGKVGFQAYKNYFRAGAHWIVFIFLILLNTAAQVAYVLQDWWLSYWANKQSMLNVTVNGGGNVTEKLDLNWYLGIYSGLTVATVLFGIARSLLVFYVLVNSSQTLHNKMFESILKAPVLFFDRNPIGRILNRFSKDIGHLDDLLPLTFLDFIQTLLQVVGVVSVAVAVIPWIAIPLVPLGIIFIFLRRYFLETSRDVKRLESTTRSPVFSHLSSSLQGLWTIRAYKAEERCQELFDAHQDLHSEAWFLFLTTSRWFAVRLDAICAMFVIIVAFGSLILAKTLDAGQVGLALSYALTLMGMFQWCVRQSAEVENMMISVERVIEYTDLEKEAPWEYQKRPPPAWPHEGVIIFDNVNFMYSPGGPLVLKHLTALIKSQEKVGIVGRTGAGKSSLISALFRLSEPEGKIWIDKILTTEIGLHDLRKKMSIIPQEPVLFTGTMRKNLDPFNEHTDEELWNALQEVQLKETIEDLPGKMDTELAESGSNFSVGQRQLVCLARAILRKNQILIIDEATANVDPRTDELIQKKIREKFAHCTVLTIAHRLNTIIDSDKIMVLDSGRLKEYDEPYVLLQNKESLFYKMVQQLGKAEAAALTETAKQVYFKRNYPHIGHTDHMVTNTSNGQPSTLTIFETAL

[7] = Ratio of drug concentration at steady state in human at 0.075 to 0.26 mg/kg, po after 24 hrs to IC50 for human MRP2 overexpressed in Sf9 insect cells; format: ADME, organism-based; settings: in vivo
Homo sapiens = experiment: Drug concentration at steady state in human at 0.075 to 0.26 mg/kg, po after 24 hrs; format: ADME, organism-based; settings: in vivo
[8] = Ratio of drug concentration at steady state in human at 0.075 to 0.26 mg/kg, po after 24 hrs to IC50 for human BSEP overexpressed in Sf9 insect cells; format: ADME, organism-based; settings: in vivo
[9] = AUC in human at 0.075 to 0.26 mg/kg, po after 24 hrs; format: ADME, organism-based; settings: in vivo
[10] = AUC in human at 2.5 to 20 mg, po QD after 24 hrs; format: ADME, organism-based; settings: in vivo
[11] = Drug concentration at steady state in human at 2.5 to 20 mg, po QD after 24 hrs; format: ADME, organism-based; settings: in vivo, read-out: Css
[12] = Ratio of drug concentration at steady state in human at 2.5 to 20 mg, po QD after 24 hrs to IC50 for human BSEP overexpressed in Sf9 insect cells; format: ADME, organism-based; settings: in vivo
[13] = Ratio of drug concentration at steady state in human at 0.5 to 4 mg, po BID/TID/QID after 6 hrs to IC50 for human BSEP overexpressed in Sf9 insect cells; format: ADME, organism-based; settings: in vivo
[14] = Ratio of drug concentration at steady state in human at 0.5 to 4 mg, po BID/TID/QID after 6 hrs to IC50 for human MRP2 overexpressed in Sf9 insect cells; format: ADME, organism-based; settings: in vivo
[15] = AUC in human at 0.5 to 4 mg, po BID/TID/QID after 6 hrs; format: ADME, organism-based; settings: in vivo
[16] = Drug concentration at steady state in human at 0.5 to 4 mg, po BID/TID/QID after 6 hrs; format: ADME, organism-based; settings: in vivo, read-out: Css
[17] = Ratio of drug concentration at steady state in human at 0.5 to 4 mg, po BID/TID/QID after 6 hrs to IC50 for human MRP4 overexpressed in Sf9 insect cells; format: ADME, organism-based; settings: in vivo
[18] = Ratio of drug concentration at steady state in human at 0.5 to 4 mg, po BID/TID/QID after 6 hrs to IC50 for human MRP3 overexpressed in Sf9 insect cells; format: ADME, organism-based; settings: in vivo
[19] = AUC in human at 5 to 80 mg, po QD after 24 hrs; format: ADME, organism-based; settings: in vivo
[20] = Drug concentration at steady state in human at 5 to 80 mg, po QD after 24 hrs; format: ADME, organism-based; settings: in vivo, read-out: Css
[21] = Drug concentration at steady state in human at 6 to 12 mg, po BID after 12 hrs; format: ADME, organism-based; settings: in vivo, read-out: Css
[22] = Ratio of drug concentration at steady state in human at 6 to 12 mg, po BID after 12 hrs to IC50 for human BSEP overexpressed in Sf9 insect cells; format: ADME, organism-based; settings: in vivo
[23] = AUC in human at 6 to 12 mg, po BID after 12 hrs; format: ADME, organism-based; settings: in vivo

With C#C[C@@]1(OC(C)=O)CC[C@H]2[C@@H]3CCC4=CC(=O)CC[C@@H]4[C@H]3CC[C@@]21C the IC50 [1] was greater than 133 µM, the AUC at 24 h [2] was 0.494 µM·h and the IC50 [3] was greater than 133 µM. For the same compound, the concentration at 24 h [4] was 21 nM, the IC50 (Bile salt export pump) was 36 µM and the Ratio [5] was 0.00057. It also gave an IC50 [6] greater than 133 µM.

C=CC[C@@H]1/C=C(\C)C[C@H](C)C[C@H](OC)[C@H]2O[C@@](O)(C(=O)C(=O)N3CCCC[C@H]3C(=O)O[C@H](/C(C)=C/[C@@H]3CC[C@@H](O)[C@H](OC)C3)[C@H](C)[C@@H](O)CC1=O)[C@H](C)C[C@@H]2OC [TACROLIMUS ANHYDROUS] showed an IC50 [1] greater than 133 µM, a Ratio [7] of 0 and a Css (Homo sapiens) of 0.011 µM. It also gave an IC50 [3] of 40.3 µM, a Ratio [8] of 0.001 and an IC50 (Bile salt export pump) of 7.18 µM. For the same compound, the IC50 [6] was greater than 133 µM and the AUC at 24 h [9] was 0.252 µM·h.

For COC(=O)C1=C(C)NC(C)=C(C(=O)OC(C)C)C1c1cccc2nonc12 (centres undefined) [ISRADIPINE], the IC50 [1] was greater than 133 µM, the AUC at 24 h [10] was 0.197 µM·h and the IC50 [3] was greater than 133 µM. The concentration at 24 h [11] was 8 nM, the IC50 (Bile salt export pump) was 28 µM and the Ratio [12] was 0.0003. For the same compound, the IC50 [6] was greater than 133 µM.

Compound CCOc1cc(CC(=O)N[C@@H](CC(C)C)c2ccccc2N2CCCCC2)ccc1C(=O)O [REPAGLINIDE] has an IC50 [1] of 16.7 µM, a Ratio [13] of 0.00075 and an IC50 [3] of 72.3 µM. For the same compound, the Ratio [14] was 0, the AUC at 6 h [15] was 0.099 µM·h and the concentration at 6 h [16] was 16 nM. It also gave an IC50 (Bile salt export pump) of 22 µM, a Ratio [17] of 0 and an IC50 [6] of 53.9 µM. For the same compound, the Ratio [18] was 0.001.

Compound CCC(C)(C)C(=O)O[C@H]1C[C@@H](C)C=C2C=C[C@H](C)[C@H](CC[C@@H]3C[C@@H](O)CC(=O)O3)[C@H]21 [SIMVASTATIN] has an IC50 [1] greater than 133 µM, an IC50 [3] greater than 133 µM and an AUC at 24 h [19] of 0.212 µM·h. The IC50 [6] was greater than 133 µM and the concentration at 24 h [20] was 9 nM.

For COc1cc(C(C)=O)ccc1OCCCN1CCC(c2noc3cc(F)ccc23)CC1 [ILOPERIDONE], the IC50 [1] was greater than 133 µM, the concentration at 12 h [21] was 9 nM and the Ratio [22] was 0.00038. For the same compound, the IC50 [3] was greater than 133 µM, the AUC at 12 h [23] was 0.106 µM·h and the IC50 (Bile salt export pump) was 23.4 µM. The IC50 [6] was greater than 133 µM.
